Laboratory results reported in ChEMBL document CHEMBL1201862, “PubChem BioAssay data set” (2004).
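The compound was tested at five concentrations on cells cultured in 96-well plates, with a 48-hour exposure period. GI50 is the concentration that inhibits growth by half.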 Activity calls are given as the source filed them. Rule as the data show it: active = GI50 up to about 1.1 µM and inactive = higher.

Columns and labels:
Assay in all cases: NCI tumour cell line growth inhibition, 48 h
[1] = tested on: DLD-1
[2] = tested on: DMS-114
[3] = tested on: DMS-273
[4] = tested on: KM-20L2
[5] = tested on: LXFL 529
[6] = tested on: SNB-78
[7] = tested on: XF498
[8] = tested on: HOP-18
[9] = tested on: RXF 631

Nc1nc(SCCC/C=C/I)nc2c1ncn2C1OC(COP(=O)(O)O)C(O)C1O (stereo unspecified)
GI50 [1]: > 100 µM (inactive)
GI50 [2]: > 100 µM (inactive)
GI50 [3]: > 100 µM (inactive)
GI50 [4]: > 100 µM (inactive)
GI50 [5]: > 100 µM (inactive)
GI50 [6]: > 100 µM (inactive)
GI50 [7]: > 100 µM (inactive)

CCCCCOc1ccc(/C=N\c2ccc(CCc3ccc(/N=C/c4ccc(OCCCCC)cc4)cc3)cc2)cc1
GI50 [1]: > 100 µM (inactive)
GI50 [2]: > 100 µM (inactive)
GI50 [3]: > 100 µM (inactive)
GI50 [8]: > 100 µM (inactive)
GI50 [4]: > 100 µM (inactive)
GI50 [6]: > 100 µM (inactive)
GI50 [7]: > 100 µM (inactive)

Cn1c(=O)c2nc(NCCO)cnc2n(C)c1=O
GI50 [1]: > 100 µM (inactive)
GI50 [2]: 64.1 µM (inactive)
GI50 [3]: 53.6 µM (inactive)
GI50 [4]: > 100 µM (inactive)
GI50 [5]: 36.5 µM (inactive)
GI50 [6]: > 100 µM (inactive)
GI50 [7]: 38.9 µM (inactive)

CC1=NOC(=O)/C1=C/c1cccc2ccccc12
GI50 [1]: > 100 µM (inactive)
GI50 [2]: > 100 µM (inactive)
GI50 [3]: > 100 µM (inactive)
GI50 [8]: > 100 µM (inactive)
GI50 [4]: > 100 µM (inactive)
GI50 [5]: > 100 µM (inactive)
GI50 [6]: > 100 µM (inactive)

Cc1ccccc1NC(=O)C(=O)CC(=O)C1CCOC1=O (stereo unspecified)
GI50 [1]: > 100 µM (inactive)
GI50 [2]: > 100 µM (inactive)
GI50 [3]: > 100 µM (inactive)
GI50 [8]: 7.29 µM (inactive)
GI50 [4]: > 100 µM (inactive)
GI50 [5]: > 100 µM (inactive)
GI50 [6]: > 100 µM (inactive)
GI50 [7]: > 100 µM (inactive)

Cn1ccnc1C(c1nccn1C)C(C)(C)[N+](=O)[O-]
GI50 [1]: > 100 µM (inactive)
GI50 [2]: > 100 µM (inactive)
GI50 [3]: > 100 µM (inactive)
GI50 [9]: > 100 µM (inactive)
GI50 [6]: > 100 µM (inactive)
GI50 [7]: > 100 µM (inactive)

CCOC(=O)C(=O)CC(=O)C(Br)C(Br)c1ccc(Cl)cc1 (stereo unspecified)
GI50 [1]: 18.3 µM (inactive)
GI50 [2]: 43 µM (inactive)
GI50 [3]: 70.5 µM (inactive)
GI50 [4]: > 100 µM (inactive)
GI50 [5]: 16.3 µM (inactive)
GI50 [9]: > 100 µM (inactive)
GI50 [6]: 44.2 µM (inactive)

C[s+]1c2ccccc2c2ccccc21
GI50 [3]: > 100 µM (inactive)
GI50 [4]: > 100 µM (inactive)
GI50 [5]: > 100 µM (inactive)
GI50 [6]: > 100 µM (inactive)
GI50 [7]: > 100 µM (inactive)

O=C1c2ccccc2C(=O)N1CC#CCO
GI50 [3]: > 100 µM (inactive)
GI50 [5]: > 100 µM (inactive)
GI50 [9]: > 100 µM (inactive)
GI50 [6]: > 100 µM (inactive)
GI50 [7]: > 100 µM (inactive)

CCOC(=O)/C(=C\c1ccc(N(CCC#N)CCC#N)cc1C)NC(=O)/C=C/c1ccccc1
GI50 [1]: > 100 µM (inactive)
GI50 [2]: > 100 µM (inactive)
GI50 [3]: > 100 µM (inactive)
GI50 [4]: > 100 µM (inactive)
GI50 [5]: > 100 µM (inactive)
GI50 [6]: > 100 µM (inactive)
GI50 [7]: > 100 µM (inactive)

CC1(C)O[C@@H](CCl)C[C@H](C#N)O1
GI50 [1]: > 100 µM (inactive)
GI50 [2]: > 100 µM (inactive)
GI50 [3]: > 100 µM (inactive)
GI50 [8]: > 100 µM (inactive)
GI50 [4]: > 100 µM (inactive)
GI50 [6]: > 100 µM (inactive)
GI50 [7]: > 100 µM (inactive)

Cn1ncc2c(Nc3ccc(Cl)cc3)c3ccccc3nc21
GI50 [1]: 11.2 µM (inactive)
GI50 [2]: 13.4 µM (inactive)
GI50 [3]: 15.2 µM (inactive)
GI50 [8]: 22.3 µM (inactive)
GI50 [5]: 18.6 µM (inactive)
GI50 [9]: 13.1 µM (inactive)
GI50 [6]: 24.4 µM (inactive)
GI50 [7]: > 10 µM (inactive)

COc1cc(OC)c(Oc2cccc(OC)c2OC)c(OC)c1
GI50 [1]: > 100 µM (inactive)
GI50 [2]: > 100 µM (inactive)
GI50 [3]: > 100 µM (inactive)
GI50 [8]: 29.5 µM (inactive)
GI50 [4]: > 100 µM (inactive)
GI50 [5]: > 100 µM (inactive)
GI50 [6]: > 100 µM (inactive)
GI50 [7]: > 100 µM (inactive)

C=C(C)C1Cc2c(c3ccccc3n(C)c2=O)O1 (stereo unspecified)
GI50 [1]: > 100 µM (inactive)
GI50 [2]: > 100 µM (inactive)
GI50 [8]: > 100 µM (inactive)
GI50 [4]: > 100 µM (inactive)
GI50 [5]: > 100 µM (inactive)
GI50 [9]: > 100 µM (inactive)
GI50 [6]: > 100 µM (inactive)

Cc1cccc(C(C)C)c1NC(=O)C(=O)C(C(=O)c1ccccc1F)C1OC(=O)c2ccccc21 (stereo unspecified)
GI50 [1]: 14.8 µM (inactive)
GI50 [2]: 10.2 µM (inactive)
GI50 [3]: 19 µM (inactive)
GI50 [8]: 3.59 µM (inactive)
GI50 [4]: 29.2 µM (inactive)
GI50 [5]: 11.9 µM (inactive)
GI50 [9]: 18.6 µM (inactive)
GI50 [7]: 10.4 µM (inactive)

CCOC(=O)COc1ccc(OC)c2c1C(=O)CCC2
GI50 [2]: > 100 µM (inactive)
GI50 [3]: > 100 µM (inactive)
GI50 [8]: > 100 µM (inactive)
GI50 [4]: > 100 µM (inactive)
GI50 [5]: > 100 µM (inactive)
GI50 [6]: > 100 µM (inactive)
GI50 [7]: > 100 µM (inactive)

CN(CCO)/N=N/c1[nH]cnc1C(N)=O
GI50 [1]: > 100 µM (inactive)
GI50 [2]: > 100 µM (inactive)
GI50 [3]: 49.9 µM (inactive)
GI50 [4]: > 100 µM (inactive)
GI50 [5]: > 100 µM (inactive)
GI50 [6]: > 100 µM (inactive)
GI50 [7]: 82.2 µM (inactive)

CCN(CC)CCC(=O)NC1c2ccccc2Oc2c(C)cccc21 (stereo unspecified)
GI50 [1]: > 100 µM (inactive)
GI50 [2]: > 100 µM (inactive)
GI50 [3]: > 100 µM (inactive)
GI50 [5]: > 100 µM (inactive)
GI50 [6]: > 100 µM (inactive)
GI50 [7]: > 100 µM (inactive)

CN(C)CCNC(=O)c1cccc2c(=O)c3ccccc3oc12
GI50 [1]: 29.6 µM (inactive)
GI50 [2]: 28.1 µM (inactive)
GI50 [3]: 28.8 µM (inactive)
GI50 [8]: 48 µM (inactive)
GI50 [4]: 34.9 µM (inactive)
GI50 [6]: 37.1 µM (inactive)
GI50 [7]: 31.3 µM (inactive)

CCN(CC)CC1CCCCN1CC(=O)N1c2cc(Cl)ccc2NC(=O)CC1C (stereo unspecified)
GI50 [1]: > 100 µM (inactive)
GI50 [2]: > 100 µM (inactive)
GI50 [3]: > 100 µM (inactive)
GI50 [4]: > 100 µM (inactive)
GI50 [5]: > 100 µM (inactive)
GI50 [6]: > 100 µM (inactive)
GI50 [7]: > 100 µM (inactive)

COc1ccc2c(c1)[n+]([O-])c(C(=O)C/C(=N/NC(=O)c1ccccc1O)C(=O)Nc1ccc(Cl)c(C(F)(F)F)c1)c(C)[n+]2[O-]
GI50 [1]: 37.4 µM (inactive)
GI50 [2]: 71.8 µM (inactive)
GI50 [3]: 49.9 µM (inactive)
GI50 [8]: 32.6 µM (inactive)
GI50 [4]: > 100 µM (inactive)
GI50 [5]: 51.4 µM (inactive)
GI50 [6]: > 100 µM (inactive)
GI50 [7]: > 100 µM (inactive)

COC(=O)c1nc(NN)cc(O)c1CCCCCc1c(O)nc(NN)nc1C(=O)OC
GI50 [1]: > 100 µM (inactive)
GI50 [2]: > 95.1 µM (inactive)
GI50 [3]: > 100 µM (inactive)
GI50 [8]: > 100 µM (inactive)
GI50 [4]: > 100 µM (inactive)
GI50 [5]: > 100 µM (inactive)
GI50 [6]: > 100 µM (inactive)
GI50 [7]: > 100 µM (inactive)

CC(C)=CC(=O)CC(=O)C(=O)Nc1ccc(Cl)c(Cl)c1
GI50 [1]: > 100 µM (inactive)
GI50 [2]: > 100 µM (inactive)
GI50 [3]: > 100 µM (inactive)
GI50 [4]: > 100 µM (inactive)
GI50 [5]: > 100 µM (inactive)
GI50 [6]: > 100 µM (inactive)

Cc1ccc(-c2nnc(SCC(=O)O)[nH]2)cc1
GI50 [1]: > 100 µM (inactive)
GI50 [2]: > 100 µM (inactive)
GI50 [3]: > 100 µM (inactive)
GI50 [8]: > 100 µM (inactive)
GI50 [4]: > 100 µM (inactive)
GI50 [5]: > 100 µM (inactive)
GI50 [6]: > 100 µM (inactive)
GI50 [7]: > 100 µM (inactive)

C#Cc1cccc(N2C(=O)CCC2=O)c1
GI50 [1]: 17.9 µM (inactive)
GI50 [2]: 14.8 µM (inactive)
GI50 [3]: 23.2 µM (inactive)
GI50 [8]: 16.7 µM (inactive)
GI50 [4]: 25.8 µM (inactive)
GI50 [5]: 11.1 µM (inactive)
GI50 [9]: 21.5 µM (inactive)
GI50 [6]: 18.5 µM (inactive)
GI50 [7]: 15 µM (inactive)

COc1cc(C2c3cc4c(cc3[C@@H](Nc3ccccc3)C3COC(=O)[C@H]23)OCO4)cc(OC)c1O (stereo partly specified)
GI50 [1]: 1.66 µM (inactive)
GI50 [2]: 0.687 µM (active)
GI50 [3]: 0.142 µM (active)
GI50 [8]: 0.853 µM (active)
GI50 [4]: 2.1 µM (inactive)
GI50 [6]: 2.37 µM (inactive)
GI50 [7]: 1.03 µM (active)

C/C1=C\[C@@H](O)C(=O)/C=C/C=C\c2csc(n2)[C@@H](C)NC(=O)C[C@@]2(CC1)[S+]([O-])SC(=O)[C@]2(C)O (stereo partly specified) [LEINAMYCIN]
GI50 [1]: 0.0209 µM (active)
GI50 [2]: 0.0353 µM (active)
GI50 [3]: 0.0135 µM (active)
GI50 [8]: 0.0301 µM (active)
GI50 [4]: 0.0881 µM (active)
GI50 [5]: 0.0139 µM (active)
GI50 [6]: 0.01 µM (active)
